In publication PMC5945515, “Measuring glucocorticoid receptor expression in vivo with PET” (Oncotarget, 2018) one finds Kd and logP data, which are given here for 2 molecules.

Where two headings read alike, the source gives them in different places.

In one data set the target is T1, human GR (Homo sapiens, UniProt P04150).
T1 construct: PC3 and DU145, two human prostate cancer models with endogenous GR expression; endogenous in cells; host or cells: DU145
T1 sequence (P04150 1-777): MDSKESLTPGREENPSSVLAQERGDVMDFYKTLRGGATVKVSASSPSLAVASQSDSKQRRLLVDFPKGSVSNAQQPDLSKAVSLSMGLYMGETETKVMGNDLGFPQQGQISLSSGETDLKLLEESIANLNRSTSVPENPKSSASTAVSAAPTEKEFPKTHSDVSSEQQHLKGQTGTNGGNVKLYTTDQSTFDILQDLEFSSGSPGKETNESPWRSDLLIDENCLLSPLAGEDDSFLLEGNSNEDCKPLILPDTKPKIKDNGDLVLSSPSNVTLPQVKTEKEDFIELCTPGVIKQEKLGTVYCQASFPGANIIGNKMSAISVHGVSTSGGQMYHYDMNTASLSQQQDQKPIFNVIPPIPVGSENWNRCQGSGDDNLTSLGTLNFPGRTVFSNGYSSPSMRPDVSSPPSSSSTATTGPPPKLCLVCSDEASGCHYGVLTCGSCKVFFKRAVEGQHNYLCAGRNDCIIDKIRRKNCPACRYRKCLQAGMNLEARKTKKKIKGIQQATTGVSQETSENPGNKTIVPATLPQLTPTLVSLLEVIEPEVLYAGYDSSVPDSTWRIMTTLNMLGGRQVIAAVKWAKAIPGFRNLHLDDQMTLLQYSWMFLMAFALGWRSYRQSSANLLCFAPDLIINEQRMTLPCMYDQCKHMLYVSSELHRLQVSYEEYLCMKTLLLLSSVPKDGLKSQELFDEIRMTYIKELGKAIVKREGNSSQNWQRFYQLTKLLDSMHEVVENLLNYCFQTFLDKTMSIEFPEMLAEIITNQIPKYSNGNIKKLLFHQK
The data set is described as follows: Competition binding assay on cells, human GR. On the procedure:
(§1) The KD for subfamily 3 group C nuclear hormone receptors was determined on cells by displacing ^3H-steroidal agonists for the respective receptor.
(§2) The cold ligands and ^3H-steroids were co-incubated on cells in PBS at room temperature for one hour. Following incubation, the cells were washed twice with ice cold PBS and the unbound activity was retained for analysis. The cells were lysed with 1 mL of 1 M NaOH and collected. Bound and unbound fractions were counted in a liquid scintillation counter and expressed as a percentage of the total activity added per equal relative number of cells. […] The specific binding component was plotted against the log of the competing ligand and curve fit using a non-linear regression algorithm with PRISM software.

For a further data set, the target named is T2, huPR (Homo sapiens, UniProt P06401).
T2 construct: DU145 (GR), LNCaP-AR (AR), MCF7 (PR, ER), GL261 (mouse GR), and 9L (rat GR); endogenous in cells; host or cells: MCF7
T2 sequence (P06401 1-933): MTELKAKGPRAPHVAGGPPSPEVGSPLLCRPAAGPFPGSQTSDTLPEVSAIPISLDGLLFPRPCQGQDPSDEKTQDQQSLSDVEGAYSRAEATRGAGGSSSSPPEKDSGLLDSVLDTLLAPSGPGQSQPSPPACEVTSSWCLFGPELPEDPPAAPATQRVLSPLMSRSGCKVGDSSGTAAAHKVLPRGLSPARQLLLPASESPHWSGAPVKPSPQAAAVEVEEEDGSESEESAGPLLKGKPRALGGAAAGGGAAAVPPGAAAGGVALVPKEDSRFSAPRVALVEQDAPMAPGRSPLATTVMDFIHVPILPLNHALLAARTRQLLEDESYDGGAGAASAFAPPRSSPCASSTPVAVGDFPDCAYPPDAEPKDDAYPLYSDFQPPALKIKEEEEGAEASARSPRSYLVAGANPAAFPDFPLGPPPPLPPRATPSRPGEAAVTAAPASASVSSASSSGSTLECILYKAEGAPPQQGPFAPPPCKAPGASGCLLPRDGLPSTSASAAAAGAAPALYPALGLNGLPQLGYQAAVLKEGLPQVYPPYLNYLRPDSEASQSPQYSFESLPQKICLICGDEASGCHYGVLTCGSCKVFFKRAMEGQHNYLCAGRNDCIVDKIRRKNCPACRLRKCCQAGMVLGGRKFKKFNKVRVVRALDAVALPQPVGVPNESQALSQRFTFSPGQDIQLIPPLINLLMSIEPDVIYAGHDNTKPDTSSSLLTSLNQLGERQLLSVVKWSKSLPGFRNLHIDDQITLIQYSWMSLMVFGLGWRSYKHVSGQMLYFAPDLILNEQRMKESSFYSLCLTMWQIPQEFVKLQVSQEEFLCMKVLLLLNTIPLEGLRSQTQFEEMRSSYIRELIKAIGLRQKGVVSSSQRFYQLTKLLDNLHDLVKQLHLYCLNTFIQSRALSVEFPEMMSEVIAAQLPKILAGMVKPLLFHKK
As to the kind of experiment: Competition binding assay on cells, human PR. The settings on record: MCF7 cells, displacing 3H-progesterone. On the procedure:
as §1, §2

Data set [1] in a line: Log P determination (octanol:water). The data set is classed as physicochemical. The conditions noted are these: octanol:water 1:1 v/v. As for the experimental part: To a microcentrifuge tube containing 1 mL of octanol:water (1:1 v/v) was added 50 μL of ^18F-GR02 (total activity = 37 MBq). The solution was vortexed vigorously for 30 sec, and the biphasic layers were allowed to separate. The layers were manually pipetted into new microcentrifuge tubes, and the activity of each fraction was read with a dose calibrator. The water fraction contained 1.7 MBq, and the octanol fraction contained 35.3 MBq.

[2] abbreviates: DU145 cells, displacing 3H-dexamethasone, read-out: KD huGR.

A word on the Kd: it is the concentration at which binding is half-saturated. In the case of `C[C@]12C=CC(=O)C=C1CCC1C2[C@@H](O)C[C@@]2(C)C1CC[C@]2(O)C(=O)COCCCF` (stereo partly drawn) [GR01], the Kd at human GR (setting [2]) worked out at 3.86 nM; on human GR (Supplementary Table 1, read-out: KD for human GR) it was 3.8 nM; on huPR, 1060 nM.

In general, logP refers to the decadic logarithm of the partition coefficient of the neutral form, usually between octanol and water. Read a low logP as a more hydrophilic compound. As to `C[C@]12C=CC(=O)C=C1CCC1C2[C@@H](O)C[C@@]2(C)C1CC[C@]2(O)C(=O)CNC(=O)c1ccc(F)cc1` (stereo partly drawn) [GR02], the values for the Kd on human GR (setting [2]) and at huPR were 15.9 nM and 242 nM, respectively. This molecule registered a logP in data set [1] of 1.33.
